Values joined by “and” are separate entries in the source; they are usually repeats but may differ in a detail not shown here. Equal entries are not always repeated.
Legend:
HEK-293-αVβ3 cells [1] = molecular target: T1, HEK-293-αVβ3 cells (Homo sapiens, UniProt P05106+P06756); test: AP5 Binding Assay; format: cell-based; settings: for AP5 expression induced at the highest concentration / activation at 10 µM: @10 μM, relative to AP5 expression induced by cilengitide; for EC50: concentration inducing 50% of the AP5 expression induced by 1 μM cilengitide; for activation at 10 µM: read-out: AP5 expression induced at the highest concentration
Excerpt: (§1) HEK-293 Cells Expressing αVβ3. HEK-293 cells were transfected using lipofectamine 2000 (Invitrogen #11668030) with the cDNA for αV using the pEF1/V5-His A vector and the cDNA for β3 using the vector pcDNA3.1. Cells expressing αVβ3 were identified by their reaction with murine monoclonal antibodies (mAbs) LM609 and 7E3, and stable cell lines were established by repetitive sorting using LM609. […] HEK-293-αVβ3 cells for assays are counted in an automated cell counter (ADVIA 120) and adjusted to values appropriate for each assay.
AP5 Binding Assay. HEK-293-αVβ3 cells are harvested using 0.05% trypsin 0.5 mM EDTA, washed with HBMT once, and resuspended in HBMT containing 1 mM Mg2+ and 2 mM Ca2+. The cells are counted and adjusted to 0.5×10^6 cells per sample. The compound to be tested and fluorescently labeled mAb AP5 (either Alexa 488 or Alexa 674; 10 μg/mL) are added and incubated for 30 minutes at 37° C. The cells are then washed and analyzed by flow cytometry (BD FACSCalibur) at the appropriate wavelength for detecting the AP5 fluorophore. In each assay, cilengitide (1 μM) and 10 mM EDTA are included as positive controls and untreated cells are used as the negative control. The concentration of the test compound required to induce the expression of 50% of the AP5 expression induced by cilengitide is calculated and defined as the EC50. The EC50 for cilengitide was determined based on the expression induced by EDTA.

HEK-293-αVβ3 cells [2] = molecular target: T1, HEK-293-αVβ3 cells; test: αVβ3 Cell Adhesion to Fibrinogen Assay; format: cell-based; design: IC50; other: dose reducing by 50% the adhesion of HEK-293-αVβ3 cells to fibrinogen; untreated cells 100% adhesion, 10 mM EDTA 0%; settings: for IC50: dose reducing by 50% the adhesion of HEK-293-αVβ3 cells to fibrinogen, separate determinations listed
Excerpt: as §1
αVβ3 Cell Adhesion to Fibrinogen Assay. Polystyrene 96-well microtiter plates (Costar, 3590) are precoated with 3.5 μg/mL of purified fibrinogen (Enzyme Research Laboratories) in 0.15 M NaCl, 0.01 M Tris/HCL, pH 7.4 for 1 hour at 37° C. The wells are then washed and incubated with HEPES-Buffered Modified Tyrode's solution (HBMT; 0.128 M NaCl, 10 mM HEPES, 12 mM NaHCO3, 0.4 mM NaH2PO4, 2.7 mM KCl, 0.35% bovine serum albumin (Fisher), 0.1% glucose, pH 7.4) for 1 hour at room temperature or overnight at 4° C. Wells are washed with HBMT containing 1 mM Mg2+ and 2 mM Ca2+ and then 50 μL of HEK-293-αVβ3 cells that have been pretreated with the compound to be tested for 20 minutes at room temperature are added to each well at a concentration of 3,000 cells/μL. After 30-32 minutes the wells are washed with HBMT containing Ca2+ and Mg2+ three times and then the adherent cells are lysed and the acid phosphatase activity that is released is measured by: 1. adding phosphatase substrate (Sigma EC 224-246-5) at 2 mg/mL in 0.1 M Na citrate, pH 5.6, 0.1% triton X-100 for 1 hour at room temperature; 2. stopping the reaction by adding 50 μL of 2 M NaOH; and 3. analyzing the samples in a spectrophotometer at 405 nm. In each assay, 10 mM EDTA is used as a positive control and untreated cells are used as a negative control. The IC50 is the dose of test compound that reduces by 50% the adhesion of the HEK-293-αVβ3 cells, taking the results with untreated cells as 100% and the results in the presence of EDTA as 0%. In some instances more than one IC50 determination was made, in which case, results of separate determinations are reported. IC50's were not determined for all compounds in the table; for some of these test compounds the inhibition at specific doses are reported. In some instances, the test compound produced a greater reduction than 10 mM EDTA, and these are shown as negative numbers.

T1 sequence (P05106 whole entry): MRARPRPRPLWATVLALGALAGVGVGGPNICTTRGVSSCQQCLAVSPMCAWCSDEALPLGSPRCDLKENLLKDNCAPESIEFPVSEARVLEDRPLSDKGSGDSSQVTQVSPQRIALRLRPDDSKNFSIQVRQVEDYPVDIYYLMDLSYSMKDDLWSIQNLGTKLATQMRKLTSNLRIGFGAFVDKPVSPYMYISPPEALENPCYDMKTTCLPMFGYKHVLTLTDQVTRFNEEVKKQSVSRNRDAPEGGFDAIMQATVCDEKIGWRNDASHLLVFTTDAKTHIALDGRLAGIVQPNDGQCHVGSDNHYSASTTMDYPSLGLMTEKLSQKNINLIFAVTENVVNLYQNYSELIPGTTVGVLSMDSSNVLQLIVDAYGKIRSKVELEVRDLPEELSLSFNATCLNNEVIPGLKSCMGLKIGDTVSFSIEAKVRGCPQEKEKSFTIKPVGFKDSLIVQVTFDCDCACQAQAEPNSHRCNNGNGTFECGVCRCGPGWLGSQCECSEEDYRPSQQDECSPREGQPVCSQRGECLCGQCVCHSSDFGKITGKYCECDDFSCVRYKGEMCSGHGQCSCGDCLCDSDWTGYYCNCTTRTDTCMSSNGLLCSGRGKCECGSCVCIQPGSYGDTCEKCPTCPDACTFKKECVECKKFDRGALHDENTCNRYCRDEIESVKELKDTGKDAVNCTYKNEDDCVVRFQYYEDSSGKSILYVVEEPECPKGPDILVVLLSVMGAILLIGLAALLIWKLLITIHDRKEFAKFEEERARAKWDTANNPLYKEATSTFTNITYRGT
T1 sequence (P06756 whole entry): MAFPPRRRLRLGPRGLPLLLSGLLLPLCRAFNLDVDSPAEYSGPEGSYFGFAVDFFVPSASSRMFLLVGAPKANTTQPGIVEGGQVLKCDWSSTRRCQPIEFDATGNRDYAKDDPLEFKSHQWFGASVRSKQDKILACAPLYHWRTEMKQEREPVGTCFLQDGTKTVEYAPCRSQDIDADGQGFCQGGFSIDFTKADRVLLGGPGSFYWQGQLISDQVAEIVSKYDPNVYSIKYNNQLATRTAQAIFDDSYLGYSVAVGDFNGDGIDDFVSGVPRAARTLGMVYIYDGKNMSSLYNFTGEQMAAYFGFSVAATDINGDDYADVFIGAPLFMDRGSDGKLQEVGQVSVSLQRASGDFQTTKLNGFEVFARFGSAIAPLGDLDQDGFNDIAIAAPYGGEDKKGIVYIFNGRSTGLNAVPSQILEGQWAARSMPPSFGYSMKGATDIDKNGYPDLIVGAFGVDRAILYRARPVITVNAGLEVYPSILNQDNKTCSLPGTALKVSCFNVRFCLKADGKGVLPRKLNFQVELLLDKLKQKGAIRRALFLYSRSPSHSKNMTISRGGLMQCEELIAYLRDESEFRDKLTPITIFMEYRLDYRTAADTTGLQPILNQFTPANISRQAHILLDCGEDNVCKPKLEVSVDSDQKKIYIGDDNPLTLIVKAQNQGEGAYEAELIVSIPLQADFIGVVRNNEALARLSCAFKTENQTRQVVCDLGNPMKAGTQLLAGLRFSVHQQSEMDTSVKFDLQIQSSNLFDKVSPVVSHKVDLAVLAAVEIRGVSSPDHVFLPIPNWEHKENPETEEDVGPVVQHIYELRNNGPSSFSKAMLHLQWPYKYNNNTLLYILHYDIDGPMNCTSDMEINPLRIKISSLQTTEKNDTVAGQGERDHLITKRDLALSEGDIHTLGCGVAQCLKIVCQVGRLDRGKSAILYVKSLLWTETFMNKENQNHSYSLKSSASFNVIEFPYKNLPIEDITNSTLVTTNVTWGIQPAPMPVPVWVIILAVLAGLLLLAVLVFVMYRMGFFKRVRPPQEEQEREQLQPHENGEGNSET

## O=C(CCCCc1ccc2c(n1)NCCC2)NCCC(C(=O)O)c1cnc2ccccc2c1 (single isomer, unassigned) [Example 89, 2-(3-quinolyl)-4-[5-(5,6,7,8-tetrahydro-1,8-naphthyridin-2-yl)pentanoylamino]butanoic acid]
HEK-293-αVβ3 cells [1]
  AP5 expression induced at the highest concentration: 27%
  EC50: > 10000 nM
HEK-293-αVβ3 cells [2]
  IC50: 106 nM

## O=C(CCCCc1ccc2c(n1)NCCC2)NCCC(C(=O)O)c1cnc2ccccc2c1 (single isomer, unassigned) [Example 90, 2-(3-quinolyl)-4-[5-(5,6,7,8-tetrahydro-1,8-naphthyridin-2-yl)pentanoylamino]butanoic acid]
HEK-293-αVβ3 cells [1]
  AP5 expression induced at the highest concentration: 11%
  EC50: > 10000 nM
HEK-293-αVβ3 cells [2]
  IC50: 228 nM

## O=C(CCCCc1ccc2c(n1)NCCC2)NCCC(C(=O)O)n1cnc(-c2ccccc2)n1 (single isomer, unassigned) [Example 93, (S or R)-2-(3-phenyl-1,2,4-triazol-1-yl)-4-[5-(5,6,7,8-tetrahydro-1,8-naphthyridin-2-yl)pentanoylamino]-butanoic acid]
HEK-293-αVβ3 cells [1]
  EC50: > 10000 nM
HEK-293-αVβ3 cells [2]
  IC50: 288 nM

## O=C(CCCCc1ccc2c(n1)NCCC2)NCCC(C(=O)O)n1cnc(-c2ccccc2)n1 (single isomer, unassigned) [Example 94, (S or R)-2-(3-phenyl-1,2,4-triazol-1-yl)-4-[5-(5,6,7,8-tetrahydro-1,8-naphthyridin-2-yl)pentanoylamino]butanoic acid]
HEK-293-αVβ3 cells [2]
  IC50: 373 nM

## O=C(O)CCCNC(=O)CCCCc1ccc2c(n1)NCCC2 [Example 1, 4-[5-(5,6,7,8-tetrahydro-1,8-naphthyridin-2-yl)pentanoylamino]butanoic acid]
HEK-293-αVβ3 cells [1]
  EC50: > 100000 nM
HEK-293-αVβ3 cells [2]
  IC50: 1350 nM

## COC(=O)[C@H](CCNC(=O)CCCCc1ccc2c(n1)NCCC2)NC(=O)OCc1ccccc1 [Example 2, Methyl (2S)-2-(benzyloxycarbonylamino)-4-[5-(5,6,7,8-tetrahydro-1,8-naphthyridin-2-yl)pentanoylamino]butanoate]
HEK-293-αVβ3 cells [1]
  activation at 10 µM: 19%
  EC50: > 10000 nM
HEK-293-αVβ3 cells [2]
  IC50: 286 nM and 1680 nM

## O=C(CCCCc1ccc2c(n1)NCCC2)NCC[C@H](NC(=O)OCc1ccccc1)C(=O)O [Example 3, (2S)-2-(Benzyloxycarbonylamino)-4-[5-(5,6,7,8-tetrahydro-1,8-naphthyridin-2-yl)pentanoylamino]butanoic acid]
HEK-293-αVβ3 cells [1]
  activation at 10 µM: 16%
  EC50: > 10000 nM
HEK-293-αVβ3 cells [2]
  IC50: 146 nM and 484 nM and 699 nM and 362 nM and 324 nM and 344 nM

## O=C(CCCCc1ccc2c(n1)NCCC2)NCC[C@@H](NC(=O)OCc1ccccc1)C(=O)O [Example 4, (2R)-2-(Benzyloxycarbonylamino)-4-[5-(5,6,7,8-tetrahydro-1,8-naphthyridin-2-yl)pentanoylamino]butanoic acid]
HEK-293-αVβ3 cells [1]
  activation at 10 µM: 5%
  EC50: > 10000 nM
HEK-293-αVβ3 cells [2]
  IC50: 225 nM and 773 nM and 952 nM and 537 nM and 612 nM and 683 nM

## COC(=O)C(CCNC(=O)CCCCc1ccc2c(n1)NCCC2)NC(=O)OCc1ccccc1 (stereo not drawn) [Example 5, Methyl 2-(benzyloxycarbonylamino)-4-[5-(5,6,7,8-tetrahydro-1,8-naphthyridin-2-yl)pentanoylamino]butanoate]
HEK-293-αVβ3 cells [1]
  activation at 10 µM: 23%
  EC50: > 10000 nM
HEK-293-αVβ3 cells [2]
  IC50: 2450 nM

## COC(=O)[C@@H](CCNC(=O)CCCCc1ccc2c(n1)NCCC2)NC(=O)OCc1ccccc1 [Example 6, Methyl (2R)-2-(benzyloxycarbonylamino)-4-[5-(5,6,7,8-tetrahydro-1,8-naphthyridin-2-yl)pentanoylamino]butanoate]
HEK-293-αVβ3 cells [2]
  IC50: > 10000 nM

## O=C(CCCCc1ccc2c(n1)NCCC2)NCCC(NC(=O)OCc1ccccc1)C(=O)O (stereo not drawn) [Example 7, 2-(Benzyloxycarbonylamino)-4-[5-(5,6,7,8-tetrahydro-1,8-naphthyridin-2-yl)pentanoylamino]butanoic acid]
HEK-293-αVβ3 cells [1]
  activation at 10 µM: 15%
  EC50: > 10000 nM
HEK-293-αVβ3 cells [2]
  IC50: 407 nM and 570 nM and 337 nM and 428 nM

## COC(=O)C(CCNC(=O)CCCCc1ccc2c(n1)NCCC2)c1ccccc1 (stereo not drawn) [Example 8, Methyl 2-phenyl-4-[5-(5,6,7,8-tetrahydro-1,8-naphthyridin-2-yl)pentanoylamino]butanoate]
HEK-293-αVβ3 cells [2]
  IC50: > 10000 nM

## O=C(CCCCc1ccc2c(n1)NCCC2)NCCC(C(=O)O)c1ccccc1 (stereo not drawn) [Example 9, 2-Phenyl-4-[5-(5,6,7,8-tetrahydro-1,8-naphthyridin-2-yl)pentanoylamino]butanoic acid]
HEK-293-αVβ3 cells [1]
  activation at 10 µM: 11%
  EC50: > 10000 nM
HEK-293-αVβ3 cells [2]
  IC50: 3720 nM and 1770 nM

## COC(=O)C(C)CCNC(=O)CCCCc1ccc2c(n1)NCCC2 (stereo not drawn) [Example 10, Methyl 2-methyl-4-[5-(5,6,7,8-tetrahydro-1,8-naphthyridin-2-yl)pentanoylamino]butanoate]
HEK-293-αVβ3 cells [2]
  IC50: > 10000 nM

## COC(=O)C(CCNC(=O)CCCCc1ccc2c(n1)NCCC2)Cc1ccccc1 (stereo not drawn) [Example 11, Methyl 2-benzyl-4-[5-(5,6,7,8-tetrahydro-1,8-naphthyridin-2-yl)pentanoylamino]butanoate]
HEK-293-αVβ3 cells [2]
  IC50: > 10000 nM

## CC(CCNC(=O)CCCCc1ccc2c(n1)NCCC2)C(=O)O (stereo not drawn) [Example 12, 2-Methyl-4-[5-(5,6,7,8-tetrahydro-1,8-naphthyridin-2-yl)pentanoylamino]butanoic acid]
HEK-293-αVβ3 cells [2]
  IC50: > 10000 nM

## O=C(CCCCc1ccc2c(n1)NCCC2)NCCC(Cc1ccccc1)C(=O)O (stereo not drawn) [Example 13, 2-Benzyl-4-[5-(5,6,7,8-tetrahydro-1,8-naphthyridin-2-yl)pentanoylamino]butanoic acid]
HEK-293-αVβ3 cells [2]
  IC50: > 10000 nM

## Cc1ccc(S(=O)(=O)NC(CCNC(=O)CCCCc2ccc3c(n2)NCCC3)C(=O)O)cc1 (stereo not drawn) [Example 14, 2-(p-Tolylsulfonylamino)-4-[5-(5,6,7,8-tetrahydro-1,8-naphthyridin-2-yl)pentanoylamino]butanoic acid]
HEK-293-αVβ3 cells [1]
  activation at 10 µM: 7%
  EC50: > 10000 nM
HEK-293-αVβ3 cells [2]
  IC50: 6300 nM

## O=C(CCCCc1ccc2c(n1)NCCC2)NCCC(NC(=O)c1ccccn1)C(=O)O (stereo not drawn) [Example 25]
HEK-293-αVβ3 cells [1]
  activation at 10 µM: 16%
  EC50: > 10000 nM
HEK-293-αVβ3 cells [2]
  IC50: < 100 nM

## O=C(CCCCc1ccc2c(n1)NCCC2)NCCC(NC(=O)CO)C(=O)O (stereo not drawn) [Example 34]
HEK-293-αVβ3 cells [1]
  activation at 10 µM: 32%
  EC50: > 10000 nM
HEK-293-αVβ3 cells [2]
  IC50: < 100 nM

## COC(=O)NC(CCNC(=O)CCCCc1ccc2c(n1)NCCC2)C(=O)O (stereo not drawn) [Example 36]
HEK-293-αVβ3 cells [1]
  activation at 10 µM: 12%
  EC50: > 10000 nM
HEK-293-αVβ3 cells [2]
  IC50: < 100 nM

## CC(C)COC(=O)NC(CCNC(=O)CCCCc1ccc2c(n1)NCCC2)C(=O)O (stereo not drawn) [Example 38, 2-(Isobutoxycarbonylamino)-4-[5-(5,6,7,8-tetrahydro-1,8-naphthyridin-2-yl)pentanoylamino]butanoic acid]
HEK-293-αVβ3 cells [1]
  activation at 10 µM: 20%
  EC50: > 10000 nM
HEK-293-αVβ3 cells [2]
  IC50: 343 nM and 416 nM

## O=C(CCCCc1ccc2c(n1)NCCC2)NCCC(NS(=O)(=O)c1ccc2ccccc2c1)C(=O)O (stereo not drawn) [Example 45]
HEK-293-αVβ3 cells [2]; dose 0.1 (table in μM), untreated cells 100% adhesion, 10 mM EDTA 0%
  inhibition at specific dose 0.1: 40%

## O=C(CCCCc1ccc2c(n1)NCCC2)NCCC(NS(=O)(=O)c1ccc(Oc2ccccc2)cc1)C(=O)O (stereo not drawn) [Example 48]
HEK-293-αVβ3 cells [2]
  IC50: > 10000 nM

## O=C(CCCCc1ccc2c(n1)NCCC2)NCCC(NC(=O)Nc1ccc(Oc2ccccc2)cc1)C(=O)O (stereo not drawn) [Example 59]
HEK-293-αVβ3 cells [2]
  IC50: > 10000 nM

## CC(C)[C@H]1C(=O)N[C@@H](CCCN=C(N)N)C(=O)NCC(=O)N[C@@H](CC(=O)O)C(=O)N[C@H](Cc2ccccc2)C(=O)N1C [cilengitide, reference compound]
HEK-293-αVβ3 cells [1]; 1 μM cilengitide, average±SD of 17 experiments
  AP5 expression: 42.5±8.0 arbitrary fluorescence units

Reference: patent US11192889B2, “Tetrahydronaphthyridinepentanamide integrin antagonists” (The Rockefeller University, priority 2016, dated 2021)
